Reference: ChEMBL document CHEMBL1201862, “PubChem BioAssay data set” (2004)
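96-well plates; 48 h exposure; 5 concentrations. Endpoints by linear interpolation between flanking doses. Not reached: highest tested concentration assigned. At the GI50, growth is halved.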 Active and inactive are the calls of the source. Rule as the data show it: active = GI50 up to about 1.1 µM and inactive = higher.

Key:
Assay in all cases: inhibition of tumour cell growth, NCI panel, 48 h
OVCAR-3 = test system: OVCAR-3
SK-MEL-5 = test system: SK-MEL-5
DU-145 = test system: DU-145
MDA-MB-231 = test system: MDA-MB-231
SK-MEL-28 = test system: SK-MEL-28
OVCAR-5 = test system: OVCAR-5
RPMI-8226 = test system: RPMI-8226
NCI-H23 = test system: NCI-H23
TK-10 = test system: TK-10
PC-3 = test system: PC-3
SNB-75 = test system: SNB-75
HOP-92 = test system: HOP-92
SW-620 = test system: SW-620
CCRF-CEM = test system: CCRF-CEM
NCI-H522 = test system: NCI-H522
A498 = test system: A498
ACHN = test system: ACHN
HT-29 = test system: HT-29
MOLT-4 = test system: MOLT-4
Hs-578T = test system: Hs-578T
SK-MEL-2 = test system: SK-MEL-2
HOP-62 = test system: HOP-62
T47D = test system: T47D
NCI/ADR-RES = test system: NCI/ADR-RES
LOX IMVI = test system: LOX IMVI
MCF7 = test system: MCF7
NCI-H226 = test system: NCI-H226
NCI-H460 = test system: NCI-H460
HL-60 = test system: HL-60
OVCAR-8 = test system: OVCAR-8
IGROV-1 = test system: IGROV-1
SF-539 = test system: SF-539
HCT-116 = test system: HCT-116
RXF 393 = test system: RXF 393
MDA-MB-435 = test system: MDA-MB-435
786-0 = test system: 786-0
SR = test system: SR
SF-268 = test system: SF-268
SF-295 = test system: SF-295
COLO 205 = test system: COLO 205
EKVX = test system: EKVX
SNB-19 = test system: SNB-19
A549 = test system: A549
HCT-15 = test system: HCT-15
U-251 = test system: U-251
CAKI-1 = test system: CAKI-1
SK-OV-3 = test system: SK-OV-3
UACC-62 = test system: UACC-62
M14 = test system: M14
MDA-N = test system: MDA-N
KM12 = test system: KM12
K562 = test system: K562
HCC 2998 = test system: HCC 2998
UO-31 = test system: UO-31
OVCAR-4 = test system: OVCAR-4
SN12C = test system: SN12C
UACC-257 = test system: UACC-257
Malme-3M = test system: Malme-3M
BT-549 = test system: BT-549

Question: With `CCCN1CN(c2ccccc2)C2(CCN(CCCC(=O)c3ccc(F)cc3)CC2)C1=O` as the molecule, how does the GI50 (OVCAR-3) read?
Answer: Its GI50 is 13.8 µM (inactive).

Question: What about the GI50 (SK-MEL-5) of the same molecule?
Answer: Its GI50 is 1.44 µM (inactive).

Question: What about the GI50 (DU-145) of the same molecule?
Answer: The GI50 was 1.53 µM (inactive).

Question: What about the GI50 (MDA-MB-231) of the same molecule?
Answer: Its GI50 is 6.93 µM (inactive).

Question: And the GI50 (SK-MEL-28)?
Answer: The GI50 was 19.2 µM (inactive).

Question: And the GI50 (OVCAR-5)?
Answer: Its GI50 is 5.06 µM (inactive).

Question: And the GI50 (RPMI-8226)?
Answer: The GI50 was 12.4 µM (inactive).

Question: And the GI50 (NCI-H23)?
Answer: The GI50 was 4.12 µM (inactive).

Question: What about the GI50 (TK-10) of the same molecule?
Answer: The GI50 was 6.62 µM (inactive).

Question: What about the GI50 (PC-3) of the same molecule?
Answer: The GI50 was 10.2 µM (inactive).

Question: What about the GI50 (SNB-75) of the same molecule?
Answer: The GI50 was 15 µM (inactive).

Question: And the GI50 (HOP-92)?
Answer: Its GI50 is 3.41 µM (inactive).

Question: And the GI50 (SW-620)?
Answer: The GI50 was 5.15 µM (inactive).

Question: And the GI50 (CCRF-CEM)?
Answer: The GI50 was 0.991 µM (active).

Question: What about the GI50 (NCI-H522) of the same molecule?
Answer: Its GI50 is 20.3 µM (inactive).

Question: And the GI50 (A498)?
Answer: The GI50 was 0.933 µM (active).

Question: What about the GI50 (ACHN) of the same molecule?
Answer: Its GI50 is 2.13 µM (inactive).

Question: And the GI50 (HT-29)?
Answer: The GI50 was 0.631 µM (active).

Question: And the GI50 (MOLT-4)?
Answer: Its GI50 is 4.2 µM (inactive).

Question: What about the GI50 (Hs-578T) of the same molecule?
Answer: The GI50 was 13.2 µM (inactive).

Question: What about the GI50 (SK-MEL-2) of the same molecule?
Answer: The GI50 was 11.6 µM (inactive).

Question: What about the GI50 (HOP-62) of the same molecule?
Answer: Its GI50 is 2.7 µM (inactive).

Question: What about the GI50 (T47D) of the same molecule?
Answer: The GI50 was 4.61 µM (inactive).

Question: And the GI50 (NCI/ADR-RES)?
Answer: The GI50 was 4.53 µM (inactive).

Question: And the GI50 (LOX IMVI)?
Answer: Its GI50 is 4.41 µM (inactive).

Question: And the GI50 (MCF7)?
Answer: The GI50 was 0.6 µM (active).

Question: And the GI50 (NCI-H226)?
Answer: Its GI50 is 6.47 µM (inactive).

Question: And the GI50 (NCI-H460)?
Answer: The GI50 was 12.7 µM (inactive).

Question: And the GI50 (HL-60)?
Answer: Its GI50 is 16.6 µM (inactive).

Question: What about the GI50 (OVCAR-8) of the same molecule?
Answer: Its GI50 is 16.7 µM (inactive).

Question: What about the GI50 (IGROV-1) of the same molecule?
Answer: Its GI50 is 2.54 µM (inactive).

Question: What about the GI50 (SF-539) of the same molecule?
Answer: The GI50 was 4.49 µM (inactive).

Question: What about the GI50 (HCT-116) of the same molecule?
Answer: Its GI50 is 2.18 µM (inactive).

Question: And the GI50 (RXF 393)?
Answer: The GI50 was 16.8 µM (inactive).

Question: And the GI50 (MDA-MB-435)?
Answer: The GI50 was 11 µM (inactive).

Question: And the GI50 (786-0)?
Answer: Its GI50 is 5.15 µM (inactive).

Question: And the GI50 (SR)?
Answer: Its GI50 is 16.6 µM (inactive).

Question: What about the GI50 (SF-268) of the same molecule?
Answer: The GI50 was 5.56 µM (inactive).

Question: And the GI50 (SF-295)?
Answer: Its GI50 is 11 µM (inactive).

Question: What about the GI50 (COLO 205) of the same molecule?
Answer: Its GI50 is 0.169 µM (active).

Question: And the GI50 (EKVX)?
Answer: The GI50 was 14 µM (inactive).

Question: What about the GI50 (SNB-19) of the same molecule?
Answer: The GI50 was 13.2 µM (inactive).

Question: What about the GI50 (A549) of the same molecule?
Answer: The GI50 was 6.61 µM (inactive).

Question: What about the GI50 (HCT-15) of the same molecule?
Answer: Its GI50 is 4.31 µM.

Question: What about the GI50 (U-251) of the same molecule?
Answer: Its GI50 is 14.7 µM (inactive).

Question: What about the GI50 (CAKI-1) of the same molecule?
Answer: The GI50 was 4.61 µM (inactive).

Question: And the GI50 (SK-OV-3)?
Answer: Its GI50 is 19.1 µM (inactive).

Question: And the GI50 (UACC-62)?
Answer: Its GI50 is 16.3 µM (inactive).

Question: What about the GI50 (M14) of the same molecule?
Answer: The GI50 was 12.4 µM (inactive).

Question: And the GI50 (MDA-N)?
Answer: The GI50 was 9.38 µM (inactive).

Question: And the GI50 (KM12)?
Answer: Its GI50 is 16.3 µM (inactive).

Question: And the GI50 (K562)?
Answer: Its GI50 is 16.3 µM (inactive).

Question: What about the GI50 (HCC 2998) of the same molecule?
Answer: Its GI50 is 7.82 µM (inactive).

Question: And the GI50 (UO-31)?
Answer: The GI50 was 11.8 µM (inactive).

Question: And the GI50 (OVCAR-4)?
Answer: The GI50 was 2.48 µM (inactive).

Question: And the GI50 (SN12C)?
Answer: Its GI50 is 2.94 µM (inactive).

Question: What about the GI50 (UACC-257) of the same molecule?
Answer: Its GI50 is 0.405 µM (active).

Question: What about the GI50 (Malme-3M) of the same molecule?
Answer: Its GI50 is 14.9 µM (inactive).

Question: Which results are given for `CC(=O)OCC1OC(OCCCCCCO)C(OC(C)=O)C(OC(C)=O)C1OC(C)=O` (stereo unspecified)?
Answer: GI50 (OVCAR-3): > 100 µM (inactive); GI50 (BT-549): > 100 µM (inactive); GI50 (MDA-MB-231): > 100 µM (inactive); GI50 (SK-MEL-28): > 100 µM (inactive); GI50 (OVCAR-5): > 100 µM (inactive); GI50 (RPMI-8226): > 100 µM (inactive); GI50 (NCI-H23): > 100 µM (inactive); GI50 (TK-10): > 100 µM (inactive); GI50 (PC-3): > 100 µM (inactive); GI50 (SNB-75): > 100 µM (inactive); GI50 (HOP-92): > 100 µM (inactive); GI50 (SW-620): > 100 µM (inactive); GI50 (CCRF-CEM): > 100 µM (inactive); GI50 (NCI-H522): > 100 µM (inactive); GI50 (A498): > 100 µM (inactive); GI50 (ACHN): > 100 µM (inactive); GI50 (HT-29): > 100 µM (inactive); GI50 (MOLT-4): > 100 µM (inactive); GI50 (Hs-578T): > 100 µM (inactive); GI50 (SK-MEL-2): > 100 µM (inactive); GI50 (HOP-62): > 100 µM (inactive); GI50 (NCI/ADR-RES): > 100 µM (inactive); GI50 (LOX IMVI): > 100 µM (inactive); GI50 (MCF7): > 100 µM (inactive); GI50 (NCI-H226): > 100 µM (inactive); GI50 (NCI-H460): > 100 µM (inactive); GI50 (HL-60): > 100 µM (inactive); GI50 (OVCAR-8): > 100 µM (inactive); GI50 (IGROV-1): > 100 µM (inactive); GI50 (SF-539): > 100 µM (inactive); GI50 (HCT-116): > 100 µM (inactive); GI50 (RXF 393): > 100 µM (inactive); GI50 (MDA-MB-435): > 100 µM (inactive); GI50 (SR): > 100 µM (inactive); GI50 (SF-268): > 100 µM (inactive); GI50 (SF-295): > 100 µM (inactive); GI50 (EKVX): > 100 µM (inactive); GI50 (SNB-19): > 100 µM (inactive); GI50 (A549): > 100 µM (inactive); GI50 (HCT-15): > 100 µM; GI50 (U-251): > 100 µM (inactive); GI50 (CAKI-1): > 100 µM (inactive); GI50 (SK-OV-3): > 100 µM (inactive); GI50 (UACC-62): > 100 µM (inactive); GI50 (M14): > 100 µM (inactive); GI50 (MDA-N): > 100 µM (inactive); GI50 (KM12): > 100 µM (inactive); GI50 (K562): > 100 µM (inactive); GI50 (HCC 2998): > 100 µM (inactive); GI50 (UO-31): > 100 µM (inactive); GI50 (OVCAR-4): > 100 µM (inactive); GI50 (SN12C): > 100 µM (inactive); GI50 (UACC-257): > 100 µM (inactive)
